Molecules are shown by their SMILES.

Consider `O=C(O)C1(C(=O)O)C=CC=CN1`, for which the melting point worked out at 186 °C.

For the compound `Cc1oc(-c2ccccc2)nc1COc1ccc(COc2cncc(CO)c2)cc1`, the melting point lay within 128 to 130 °C. For the compound `N#CNC=Nc1ccc(-c2cc[nH]n2)cc1`, the melting point fell in the range of 223 to 224 °C.

In turn, `CCOC(=O)C(Cc1ccc(OC)cc1)c1cc2cc(Br)ccc2s1` (centres undefined) displayed a melting point of 62 to 65 °C.

`N#Cc1ccc(/C=C/C2=CCN(Cc3c[nH]c4ncccc34)CC2)cc1` came in with a melting point of 213 to 215 °C.

For `CN1CN(C)c2nc3n(Cc4ccccc4)c(=O)c(Cc4ccccc4)c(O)n3c2C1=O`, the melting point was 176 to 179 °C. To `COc1ccc2c(c1)C(C)(N1C(=O)c3ccccc3C1=O)C(=O)N2c1ccc(F)cc1` (centres undefined) belongs 207 to 208 °C. The compound `CCOC(=O)CN(CP(=O)(OSc1cc(Cl)ccc1Cl)OSc1cc(Cl)ccc1Cl)C(=O)C(F)(F)F` displayed a melting point of 77 to 80 °C. To `Cc1ccccc1C1CCN(CCc2c[nH]c3ccccc23)CC1` belongs 111 to 112 °C; to `COc1cc(OC)c(-c2cccs2)cc1C=O`, 125 to 126 °C; to `Nc1nc(N)c(N=O)c(OCC2CC=CCC2)n1` (centres undefined), 237 °C. As for `CC(C#N)CCCC(N(C)C)C1(c2ccc(Cl)cc2)CCC1` (centres undefined), the melting point lay in the range of 54 to 56 °C. Regarding `O=C(O)c1cc([N+](=O)[O-])cn1C1CCCC1`, the melting point was in the range of 195 to 198 °C. `Cc1cc(-c2nc(C)c(C)o2)cc(C)c1O`: the melting point was in the range of 203 to 205 °C.

On to `CCCCCCCCCCCCCCCCCCOc1ccc(O)c(C(=O)N(N)C(=O)OCCCCCCCC)c1`, for which the melting point is 85 °C. `COc1cccc(OC)c1C(=O)C=Cc1c(Cl)cccc1Cl` gave a melting point of 127 to 128 °C.

With `O=c1nc(-c2ccc(N3CCCC3)nc2)sc2ccccc12`, the melting point is 221 to 223 °C. In turn, `CCCc1c(C(=O)C(C)C)c2ccc(C(N)=O)cc2n1Cc1ccc(Cl)cc1` showed a melting point of 183 to 184 °C. Compound `CC(=O)N1CCc2ccc(Cl)c(Cl)c2C1` gave a melting point of 99.5 to 100 °C. As to `COc1cc(OC)c(Br)cc1O`, the melting point fell in the range of 78 to 80 °C. Compound `COCc1c[nH]c(-c2ccc(OCc3ccccc3)cc2)n1` gave a melting point of 146 to 148 °C. To `NC(=O)c1nc2cc(F)c([N+](=O)[O-])cc2[nH]c1=O` belongs > 300 °C. Then `O=c1oc(-c2ccccc2)cc(O)c1Sc1cccc(C(F)(F)F)c1`, with 228 to 229 °C; and `FC(F)(F)c1ccc2nccc(N3CCN(C(=S)NCc4ccccc4)CC3)c2c1`, with 158 to 159 °C. Consider `CC(Cl)(Cl)C(NC(=O)c1cccnc1)NC(=NC#N)Nc1ccc(Cl)nc1` (centres undefined), for which the melting point was 212 to 213 °C. To `COCNC(=O)C1CN(C(c2ccccc2)c2ccccc2)C1` belongs 103 to 106 °C. As to `Cc1cn(C(C)(C)C(N)=O)nc1-c1ccccc1`, the melting point was in the range of 105 to 106 °C. To `CC(C)(C)c1cc(OCCCCC#N)cc(C(C)(C)C)c1` belongs 61 to 64 °C; to `Nc1sc2c(c1C(=O)c1ccc(F)cc1)CCN(C(=O)OCc1ccccc1)C2`, 90 to 92 °C; to `CCCCCCCCCCCCCCOc1ccc(C(=O)OC)cc1OC`, 50 to 51 °C.

On to `CC(C)(OCc1n[nH]c2ccccc12)C(=O)O`, for which the melting point fell in the range of 135 to 137 °C.

`CS(=O)(=O)c1ccc(C(CC2CCCC2)C(=O)O)cc1Cl` (centres undefined): the melting point is 124 to 126 °C.

Consider `Cc1nc(N2CCC(O)C2)c2nc(-c3ccccc3)cc-2[nH]1` (centres undefined), for which the melting point fell in the range of 234 to 235 °C. `CCCC1(CCC)c2cc(Br)ccc2-c2cc(OC)c(Br)cc21`: the melting point was in the range of 127 to 132 °C. To `CC1(C)OC(=S)Nc2ccc(-c3cccc(Cl)c3)cc21` belongs 183 to 184 °C; to `CCc1nc2c([nH]1)c(=S)n(CC)c(=O)n2CC(C)CC` (centres undefined), 115 to 117 °C; to `COc1ccc(-c2ccc3cnc(Nc4ccc(N5CCN(CC(N)=O)CC5)c(F)c4)nn23)cn1`, 217 °C. `Cc1ccc2c(c1)c1c(n2Cc2ccc(F)cc2)CCCC1=O`: the melting point was determined as 210 °C. For `O=C(CC1CCCC1)NC[C@H]1CN(c2ccc3c(c2)CCCc2cnoc2-3)C(=O)O1`, the melting point fell in the range of 193 to 195 °C. Then `Cc1ccc(-c2c(CNC(=O)OC(C)(C)C)n(CC(C)C)c(=O)c3ccc(/C=C/C(N)=O)cc23)cc1`, with 152 to 154 °C; and `Cc1cc(C(F)(F)F)ccc1NC(=O)C(C)(C)C`, with 111 to 114 °C. `COc1nc(C)nc(NC(=O)NS(=O)(=O)c2c(Cl)cccc2C(C)F)n1` (centres undefined): the melting point is 181 to 183 °C. To `O=C(NC(Cc1ccc(OCc2ccoc2)cc1)C(=O)O)c1cn2cc(-c3ccc(Cl)cc3)ccc2n1` (centres undefined) belongs 262 °C. For the compound `Cc1c(CC(=O)NS(=O)(=O)c2ccccc2)c2cc(OCc3ccc4ccccc4n3)ccc2n1Cc1ccc(Cl)cc1`, the melting point lay in the range of 194 to 197 °C. `CC(=O)Nc1c(-c2ccc(-c3ccccc3)cc2)nc2ccc(F)cc2c1C(=O)O` came in with a melting point of 256 to 259 °C.

`CSC(=S)NCc1cc(=O)c(OC(c2ccccc2)c2ccccc2)cn1OC(c1ccccc1)c1ccccc1` displayed a melting point of 176 to 178 °C. To `O=C(O)COc1cccc2c1CCc1sc(SCC(c3ccccc3)c3ccccc3)nc1-2` belongs 223 to 225 °C; to `CCCCCCCCCCc1ccc(C[N+](=O)[O-])cc1`, 50 °C. Then `CCCCCCCNC(=O)Nc1ccccc1C(=O)NCC1c2ccccc2COc2ccc(Br)cc21` (centres undefined), with 71 to 76 °C; and `CC(C)(C)Nc1c(NCc2cccc(F)c2)c(=O)c1=O`, with 295 to 297 °C. Then `O=C1N(c2cc(Cl)cc(Cl)c2)C(=O)C2(Cc3ccc(Br)cc3)CCCCN12` (centres undefined), with 129 °C; and `CCOC(=O)CC(=O)c1ccnc(F)c1`, with 66 to 67 °C; and `Cn1c(C(F)(F)F)cc(=O)n(-c2cc([N+](=O)[O-])c(C#N)cc2F)c1=O`, with 155 to 157 °C.

As to `c1ccc2cc(N3CCN(Cc4n[nH]c5ccccc45)CC3)ncc2c1`, the melting point was in the range of 214 to 215 °C. To `CCCCCS(=O)(=O)NC(=O)CCc1ccc(OCCOC)cc1OCc1ccc(Cl)cc1Cl` belongs 107 to 108 °C. To `COc1ccc2c(c1)C(=O)OC2C(Cl)(Cl)Cl` (centres undefined) belongs 134 to 136 °C; to `COc1ccc(-c2nc(-c3cccn3CC(=O)OC(C)C)sc2-c2ccc(OC)cc2)cc1`, 130 to 133 °C.

Compound `CCOc1ccc2c(OC(=O)C(F)(F)F)c3cc4ccccc4cc3c(OC(=O)C(F)(F)F)c2c1` came in with a melting point of 165 to 170 °C. Then `O=C(c1ccc(F)cc1)C1CCN(CCn2c(=O)[nH]c3ccsc3c2=O)CC1`, with 141 to 143 °C; and `CCOC(=O)c1cc(=O)c2cccc(COc3ccc(OCc4ccc5ccccc5n4)cc3)c2o1`, with 124 to 127 °C; and `CSc1ccc(C(=O)Nc2ccc3ccc(Cl)nc3n2)s1`, with 235 °C. Then `CC(C)(C)NS(=O)(=O)c1ccc(N)cc1`, with 127 °C. `CCCCSc1nc(CCC)n(Cc2ccc(-c3ccccc3S(=O)(=O)NC(=O)NCc3ccccc3)cc2)c1C(=O)C(=O)O` came in with a melting point of 192 °C. As for `CN(C)CC(=O)Nc1cccc(NC(=O)Nc2ccc(N(CCCl)CCCl)cc2)c1`, the melting point was 62 to 64 °C.

The compound `Cc1nnc(-c2ccc3occ(-c4ccccc4C)c3c2)o1` displayed a melting point of 83 to 84 °C. Then `CC(C)(Oc1ccc(F)cc1Cl)C(=O)O`, with 63 to 65 °C. For `Nc1cccc(S(=O)(=O)NCc2cccnc2)c1`, the melting point amounted to 129 °C. With `CC(CCCC(C)(C)O)C1CCC2C3CC=C4CC(O)CCC4(C)C3CCC12C` (centres undefined), the melting point fell in the range of 168 to 175 °C. In the case of `CC(=O)NC[C@H]1CN(c2ccc(C(=O)c3cc(C#N)c4ccccn34)cc2)C(=O)O1`, the melting point is 255 to 257 °C. To `COc1ccc(Cl)cc1NC(=O)[C@H]1[C@H](c2ccccc2)C1(C)C` (relative stereo) belongs 155 to 157 °C; to `C#CC(C)Oc1cc(-c2nn3c(c2Cl)CCCC3)c(F)cc1Cl` (centres undefined), 116 to 120 °C. To `Cc1cc(O)n2nc(CBr)nc2n1` belongs 217 to 222 °C. To `Cc1cc(C(C)(C)C(=O)O)ccc1O` belongs 145 to 146 °C; to `COC(=O)c1cccc(Oc2ccc(NC(=O)c3ccc([N+](=O)[O-])cc3Br)cc2NC(=O)c2ccc([N+](=O)[O-])cc2Br)c1C(=O)OC`, 138 to 142 °C. Compound `COc1ccc(CCN(C)C)c2nn[nH]c12` had a melting point of 176 to 180 °C. For `CN(CCCC(=O)O)c1ccc(C(=O)c2ccccc2)cc1`, the melting point is 111 to 113 °C. To `COc1ccc(Oc2ccc(C(F)(F)F)cc2Cl)cc1[N+](=O)[O-]` belongs 90 to 92 °C; to `COC(=O)c1cc(C)c(C(OC(=O)C(Cc2ccccc2)NS(=O)(=O)c2ccc(C)cc2)c2cc(-n3ccnc3)ccc2C)c(C)c1` (centres undefined), 111 to 112 °C.

`COc1ccc2nc(Cl)c(C=NO)cc2c1`: the melting point worked out at 195 °C. With `OC(CNCCc1ccsc1)c1ccccc1` (centres undefined), the melting point amounted to 75 °C. As to `CN(C)C(c1ccccc1)(c1cccc(Oc2ccccc2)c1)C1CCCCC1(O)Cc1ccccc1` (centres undefined), the melting point is 189 to 190 °C.

As to `Cc1ccsc1C(=O)NP(N)(N)=O`, the melting point is 267 to 275 °C. In turn, `O=C1OC(=O)c2c1cccc2C(F)(F)F` had a melting point of 65 to 67 °C. As for `COC(=O)c1cc(Cl)c(NC(C)=O)c2c1OCCC2`, the melting point was determined as 184 °C.

With `CCc1cnc2c(c1)C=Cc1cccnc1N2`, the melting point was in the range of 95 to 97 °C. Consider `CCCCOc1cc(C=CC(=O)O)n(Cc2ccc(Cl)cc2Cl)n1`, for which the melting point fell in the range of 176 to 179 °C.

The compound `COCc1nc2c3c(ccn2c1C)C(=O)[C@H](O)[C@@H](c1ccccc1)N3` registered a melting point of 168 to 173 °C. To `Cc1nc(Cc2ccc(NC(=O)/C=C/c3cnn(C)c3-c3ccc(F)cc3)cc2)sc1C` belongs 210 to 211 °C; to `CCOc1cccc(C(C)=O)n1`, 36 to 37 °C.
